Source: patent US20030130264A1 (priority 2001, published 2003)

Tests used:
[1] = test system: recombinant human cytomegalovirus (HCMV); experiment: microbe, parasite or virus in culture; type: cell-based; conditions: Human betaherpesvirus 5, HFF
Source text: For the assessment of activity against human CMV, a method was used which is similar to that described in Kohler, et al. (1994) J. Virol. 68:6589-6597. Briefly, a recombinant human cytomegalovirus (HCMV) was made containing a marker gene (luciferase) under the control of the promoter for the late 28 kDa viral structural phosphoprotein pp28. Human foreskin fibroblast (HFF) cells were infected with the recombinant HCMV virus (moi (multiplicity of infection) 5), placed into 96-well plates, and cultured under standard cell-culture conditions. […] The level of luciferase expression was measured 24 h after treatment with the test compounds. […] As an additional control, the cytotoxicity of test compounds on untreated HFF cells was also evaluated in cultured cell growth experiments.

Compound	melting point [°C]	IC50 [1] [nM]
Cc1nc(NC2Cc3ccccc3C2)nc(-n2ccnc2C)c1[N+](=O)[O-].Cl	184 to 185	–
CC[C@H]1CCCCC1Nc1nc(C)c([N+](=O)[O-])c(-n2ccnc2)n1 (some centres unmarked)	123 to 124	–
CCC(Nc1nc(C)c([N+](=O)[O-])c(-n2ccnc2)n1)c1ccccc1 (centres unmarked) [2-(1-phenyl-1-propylamino)-4-(imidazol-1-yl)-6-methyl-5-nitropyrimidine]	–	> 500
Cc1nc(NC2Cc3ccccc3C2)nc(-n2ccnc2C)c1[N+](=O)[O-] [2-(2-indanamino)-4-(2-methylimidazoyl)-6-methyl-5-nitropyrimidine]	–	> 500
Cc1nc(NC2Cc3ccccc3C2)nc(-n2ccnc2)c1[N+](=O)[O-] [2-(2-indanamino)-4-imidazolyl-6-methyl-5-nitropyrimidine]	–	> 500
CCc1nccn1-c1nc(NC2CCc3c(F)cc(F)cc32)nc(C)c1[N+](=O)[O-] (centres unmarked) [2-(4,6-difluoro-1-indanamino)-4-(2-ethylimidazolyl)-6-methyl-5-nitropyrimidine]	–	100 to 500
Cc1nc(NC2CCc3c(F)cc(F)cc32)nc(-n2ccnc2C)c1[N+](=O)[O-] (centres unmarked) [2-(4,6-difluoro-1-indanamino)-4-(2-methylimidazolyl)-6-methyl-5-nitropyrimidine]	–	100 to 500
Cc1nc(NC2CCc3c(F)cc(F)cc32)nc(-n2ccnc2)c1[N+](=O)[O-] (centres unmarked) [2-(4,6-difluoro-1-indanamino)-4-imidazolyl-6-methyl-5-nitropyrimidine]	–	100 to 500
Cc1nc(NCc2ccc(C(F)(F)F)cc2)nc(-n2ccnc2C)c1[N+](=O)[O-] [2-(4-trifluoromethylbenzylamino)-4-(2-methylimidazol-1-yl)-6-methyl-5-nitropyrimidine]	–	100 to 500
CCCCN(Cc1ccccc1)c1nc(C)c([N+](=O)[O-])c(-n2ccnc2C)n1 [Compound m]	–	2000
Cc1nc(N(Cc2ccccc2)Cc2ccccc2)nc(-n2ccnc2C)c1[N+](=O)[O-] [Compound o]	–	2000
Cc1nc(N2CCC(C)CC2)nc(-n2ccnc2C)c1[N+](=O)[O-] [Compound p]	–	300
CCCCN(CC1CC1)c1nc(C)c([N+](=O)[O-])c(-n2ccnc2C)n1 [Compound q]	–	3000
CCc1nc(N(C)c2ccccc2)nc(-n2ccnc2C)c1[N+](=O)[O-] [c]	–	100
Cc1nc(-n2ccnc2C)nc(N(C)Cc2ccccc2)c1[N+](=O)[O-] [f]	–	6000
Cc1nc(N(C)c2ccc(Cl)cc2)nc(-n2ccnc2C)c1[N+](=O)[O-] [g]	–	800
Cc1nccn1-c1nc(N(C)c2ccccc2)nc(C(C)C)c1[N+](=O)[O-] [h]	–	300
CCN(CC)c1nc(C)c([N+](=O)[O-])c(-n2ccnc2C)n1 [k]	–	1000
Cc1cn(-c2nc(N(C)c3ccccc3)nc(C)c2[N+](=O)[O-])cn1 [t]	–	10000
CCCOc1nc(C)c([N+](=O)[O-])c(-n2ccnc2C)n1 [x, 2-(propyloxy)-4-(2-methylimidazol-1yl)-6-methyl-5-nitropyrimidine]	–	> 500
